From patent US8110599B2 (priority 2006, dated 2012)
≈ marks a conversion by molar mass, not a printed value. Read-outs that look alike come from different tables or passages of the source.

Key:
[1] = test system: S180 carcinoma
Method: S-180 cells were inoculated subcutaneously to mice at the axillary region at 0.5-1×10^6 cells/mouse. […] The drugs were given 6-8 times in total, one day spaced between two administrations for all the experiments. At the end of experiments, the tumors were removed and weighed, and the tumor inhibition ratio (TIR) was calculated. Pharmaceutical efficacy was considered with TIR≧40% and P<0.05, after statistical analysis.
The prepared solution was filtered through 0.45 and 0.22 μm membrane for sterilization, divided into stock aliquots, and stored at 4° C. for future use. The stock aliquot was further diluted with sterilized PBS (pH=7.4) to the required concentration before drug administration.
5-FU, CTX, and carboplatin solutions were freshly prepared in normal saline before use. […] Mice with the same sex were used in any individual experiment.
S180 cell line was from S180 bearing mice, and was intraperitoneally passaged in Kunming mouse.
Carcinoma inoculation and drug treatment: To each mouse, 0.2 ml of the S180 and H22 cell suspensions (2.5×10^6 cells/ml) were subcutaneously injected into the right axillary region (a total of 5×10^5 cells per mouse), respectively. On the second day, the animals were grouped at random and drugs were administered accordingly. […] The drugs were given once every other day with a total of 6-8 treatments.
Determination of tumor weight and calculation of TIR (tumor inhibition ratio), were as follows. Body weight was recorded on the day after the last drug administration and animals were then sacrificed. The carcinoma was removed and weighed, and TIR (%) was calculated according the following formula: […]

[2] = Solubility and solution stability; format: physicochemical; details: pure AMP, white powder
[3] = test system: human leukemia K562 cells; assay: MTT assay, in vitro killing of K562 cells; format: cell-based; details: for IC50: Homo sapiens
Method: (1) AMP Na: An AMP-Na solution was prepared according to the method of Example 1 at an AMP:Na2CO3 ratio (w/w) of 5:3, which was then diluted 10 times with PBS (pH 6.5) to obtain the AMP-Na stock solution. The stock solution was further diluted by PBS (pH 7.4) to the concentration for cell exposure.
All the drug solutions described above were freshly prepared before use, and the final concentration for cell exposure was 100, 50, 25, 12.5, and 6.25 μg/ml, respectively.
K562 cells were cultured in RPMI1640 culture media supplemented with 10% calf serum, 100 U/ml of penicillin and streptomycin.
1. K562 cells at their log growth period were collected and centrifuged at 1,000 rpm for 5 minutes. The supernatant was discarded, and the cell density was adjusted to 1×10^5 cells/ml with RPMI 1640 cell culture media.
2. Ten microliter of the drug solution at various concentrations and 90 μl of the cell suspension or cell culture media were added to each well of the 96-well plate, followed by incubation in a CO2 incubator.
3. Cells were cultured for another 48-hour or 72-hour. Ten microliter of the MTT solution was added to per well 4 hours before the end of the experiment. Then, the solution was discarded and 100 μl of 10% SDS was added for termination of the experiment.
4. The absorbance of the solution was measured at 570 nm using a plate reader after being shaken on a shaker for 10 minutes. Results were printed out and recorded.
The inhibition ratio (%) was calculated from the following equation: […]
IC50 was calculated by linear regression of drug concentration v.s. cell inhibition ratio.

[4] = in vivo; details: both, Kunming, mouse
Method: Major organs of dead animals were removed, fixed, and subject to pathological study. […] Normal saline (36.25 ml) and 37% HCl (0.75 ml) were added to obtained the AMP stock solution with a concentration of 50 mg/ml and pH of 7.3 (concentrations of solvents including PEG 400, propanediol, and ethanol were 0.03, 0.0445, and 0.015 g/ml, respectively). […] The stock solution was further diluted in normal saline to the required concentration, and was i.v. or i.p. administered to mice at 0.2 ml/10 g bodyweight.
Both male and female Kuming mice of SPF grade, weighing 18-22 g, were used in the experiment. […] All data were analyzed by DAS software.

[5] = carboplatin experiment, carboplatin 25 mg/kg, ip alone

In the case of `O=c1[nH]cc(F)c(=O)[nH]1` [5-FU, reference compound], the “TIR (%)” value ([1]; 5-FU experiment, 5-FU 20 mg/kg, ip alone) was 45.55% and the “Tumor weight (g) (X ± SD)” value ([1]; 5-FU experiment, 5-FU 20 mg/kg, ip alone, 11 days before sacrifice) was 1.08 ± 0.60 g.

With `O=C1c2c(O)cc(O)cc2O[C@H](c2cc(O)c(O)c(O)c2)[C@H]1O` [AMP-DMSO, AMPelopsin, reference compound] the Solubility in water [2] was “does not dissolve”, the IC50 ([3]; K562, 72 h) was 4.09 µg/mL (≈ 12.8 µM) and the IC50 ([3]; K562, after drug exposure for 48 h and 72 h) was 32.3 µg/mL (≈ 101 µM). It also gave an IC50 ([3]; K562, cell treatment for 48 h) of 32.3 µg/mL (≈ 101 µM), an LD50 at 7 day [4] of 1000 mg/kg and an LD50 at 7 day ([4]; iv) of 1000 mg/kg.

In the case of `N.N.O=C([O-])C1(C(=O)[O-])CCC1.[Pt+2]` [carboplatin, reference compound], the “Body weight (g) after” value [1, 5] was 18.57/25.75 g, the “TIR (%)” value [1, 5] was 49.52% and the “Tumor weight (g) (X ± SD)” value ([1]; carboplatin experiment, carboplatin 25 mg/kg, ip alone, 10 days before sacrifice) was 0.74 ± 0.28 g.

In the case of `O.O.O.O.O.O=C1c2c(O)cc([O-])cc2OC(c2cc([O-])c(O)c([O-])c2)C1[O-].[Na+].[Na+].[Na+].[Na+]` (stereo not shown) [AMP-Na, pentahydrate of the AMPelopsin unsaturated sodium salt], the “IC50 in killing K562 cells” value ([3]; 48 h) was 29.56 µg/mL, the “Killing effects towards K562 cells, AMP-Na compared with AMP-DMSO” value ([3]; 48 h and 72 h) was “no significant difference” and the “IC50 in killing K562 cells” value ([3]; 72 h) was 4.23 µg/mL. For the same molecule, the “IC50 in killing K562 cells” value ([3]; after drug exposure for 48 h and 72 h) was 29.56 µg/mL, the “TIR (%)” value ([1]; 5-FU experiment, AMP-Na 50 mg/kg, ip, alone or jointly with 5-FU) was 4.43% and the “Tumor weight (g) (X ± SD)” value ([1]; 5-FU experiment, AMP-Na 50 mg/kg, ip, alone or jointly with 5-FU, 11 days) was 1.89 ± 0.75 g. The “TIR (%)” value ([1]; 5-FU experiment, AMP-Na 75 mg/kg, ip, alone or jointly with 5-FU) was 31.28%, the “Tumor weight (g) (X ± SD)” value ([1]; 5-FU experiment, AMP-Na 75 mg/kg, ip, alone or jointly with 5-FU, 11 days) was 1.36 ± 0.69 g and the “Tumor weight (g) (X ± SD)” value ([1]; 5-FU experiment, AMP-Na 112 mg/kg, ip, alone or jointly with 5-FU, 11 days) was 1.32 ± 0.78 g. For the same molecule, the “TIR (%)” value ([1]; 5-FU experiment, AMP-Na 112 mg/kg, ip, alone or jointly with 5-FU, sodium salt) was 33.49%, the “TIR (%)” value ([1]; 5-FU experiment, AMP-Na 167 mg/kg, ip, alone or jointly with 5-FU) was 4.45% and the “Tumor weight (g) (X ± SD)” value ([1]; 5-FU experiment, AMP-Na 167 mg/kg, ip, alone or jointly with 5-FU, 11 days) was 1.89 ± 0.59 g. The “T1R (%)” value ([1]; CTX experiment, AMP-Na 50 mg/kg, ip, alone or jointly with CTX) was 7.66%, the “Tumor weight (g) (X ± SD)” value ([1]; CTX experiment, AMP-Na 50 mg/kg, ip, alone or jointly with CTX, 12 days) was 1.66 ± 0.84 g and the “T1R (%)” value ([1]; CTX experiment, AMP-Na 75 mg/kg, ip, alone or jointly with CTX) was 6.84%. The “Tumor weight (g) (X ± SD)” value ([1]; CTX experiment, AMP-Na 75 mg/kg, ip, alone or jointly with CTX, 12 days) was 1.67 ± 1.03 g, the “T1R (%)” value ([1]; CTX experiment, AMP-Na 112 mg/kg, ip, alone or jointly with CTX) was −3.86% and the “Tumor weight (g) (X ± SD)” value ([1]; CTX experiment, AMP-Na 112 mg/kg, ip, alone or jointly with CTX, 12 days) was 1.86 ± 1.21 g. For the same molecule, the “T1R (%)” value ([1]; CTX experiment, AMP-Na 167 mg/kg, ip, alone or jointly with CTX) was −16.25%, the “Tumor weight (g) (X ± SD)” value ([1]; CTX experiment, AMP-Na 167 mg/kg, ip, alone or jointly with CTX, 12 days) was 2.08 ± 1.07 g and the “TIR (%)” value ([1]; carboplatin experiment, AMP-Na 50 mg/kg, ip, alone or jointly with carboplatin) was 23.22%. The “Tumor weight (g) (X ± SD)” value ([1]; carboplatin experiment, AMP-Na 50 mg/kg, ip, alone or jointly with carboplatin, 10 days) was 1.12 ± 0.30 g, the “TIR (%)” value ([1]; carboplatin experiment, AMP-Na 75 mg/kg, ip, alone or jointly with carboplatin) was 3.99% and the “Tumor weight (g) (X ± SD)” value ([1]; carboplatin experiment, AMP-Na 75 mg/kg, ip, alone or jointly with carboplatin, 10 days) was 1.40 ± 0.58 g. For the same molecule, the “TIR (%)” value ([1]; carboplatin experiment, AMP-Na 112 mg/kg, ip, alone or jointly with carboplatin) was 13.87%, the “Tumor weight (g) (X ± SD)” value ([1]; carboplatin experiment, AMP-Na 112 mg/kg, ip, alone or jointly with carboplatin, 10 days) was 1.26 ± 0.69 g and the “TIR (%)” value ([1]; carboplatin experiment, AMP-Na 167 mg/kg, ip, alone or jointly with carboplatin) was −7.47%. The “Tumor weight (g) (X ± SD)” value ([1]; carboplatin experiment, AMP-Na 167 mg/kg, ip, alone or jointly with carboplatin, 10 days) was 1.57 ± 0.71 g and the “Tumor suppression, AMP-Na alone” value ([1]; single administration, S-180 bearing mice) was “no or weak tumor suppression”.
